In US9427433B2, “Methods and compositions for enhancing fertility and/or inhibiting pregnancy failure and restoring glucose tolerance” (Queen's University at Kingston, priority 2011, dated 2016):

Experiments:
NOD, NZO and DIO mice [1] = assay: Ovarian function, serum estrogen/progesterone, follicle counts and uterine weight ratio; assay type: in vivo, mouse
Method: Using Papanicolaou's staining kit (Sigma Aldrich, Oakville, Ontario, Canada), staining of vaginal smears obtained between 09:00-10:00 AM was performed to identify the phases of the estrous cycle and to establish the individual animal cycling pattern as previously described (Koss L. G (Ed): The Papanicolaou Stain. In Diagnostic Cytology and its Histopathological Bases. 4th Edit. Koss, Leopold; Melamed and Myron R. Eds. J.B. Lippincott Williams & Wilkins (LWW), Philadelphia. 1992; Vol. 2: 1211-1221). Blood and virgin uteri were collected from nulliparous diabetic NOD females, at the proestrus, estrus and the metestrus phase, respectively, after four weeks in diabetes. Blood and uteri were also collected from age-matched, tacrolimus-treated nulliparous NOD mice immediately after completing the treatment schedule.
Fifty four NOD mice at the prediabetic and early diabetic stages were carefully selected to match the criteria of being 2 standard deviation heavier in body weight than their age-matched normoglycemic control mice and having blood glucose value of >14.9 mM/1 during the glucose tolerance test. The selected mice were 9 weeks old and were treated with 0.1 mg/kg q2d of tacrolimus (Prograf (5 mg/ml), Astellas) subcutaneously administered in 0.2 ml saline for three weeks after which animals were mated to males of the same strain (See FIG. 1). Vehicle (0.2 ml saline, s.q.) treated hyperglycemic NOD female mice were allowed two weeks in diabetes before they were mated to males of the same strain. Facial (mandibular) venous blood samples were collected from treated animals at 24 and 48 hours between injections and at pregnancy days 0.5, 2.5, 4.5, 6.5, 8.5, 10.5, 12.5, 14.5, 16.5 and 18.5 respectively following a standard procedure for facial bleed in mice (Golde et al Lab Anim (NY) 2005 34:39-43).
Twenty NZO and DIO/B6 female mice were maintained on a high fat diet consisted of 60% kcal fat, 20% kcal protein and 20% kcal carbohydrate, with a total energy mass of 5.24 kcal/gm (D12492, Research Diets Inc.; Cedarlane Laboratories, Burlington, Ontario, Canada) starting at 7 weeks of age and maintained on the diet for a total of 12 weeks of study period during which their weekly body weight changes and non-fasting blood glucose values were recorded. Mice which became obese as defined by having a Body mass index (BMI) value of 30, and tested positive for glucose intolerance were selected for an initial treatment episode with tacrolimus after being fed for four weeks with the high fat diet (See FIG. 2). Tacrolimus (Prograf (5 mg/ml), Astellas) was administered subcutaneously in a dose of 0.1 mg/kg q2d in 0.2 ml saline for three weeks to the obese and glucose intolerant NZO and DIO mice starting at the age of 10 weeks after which animals were mated to males of the same strain and pregnancy was dated from the morning of the positive detection of vaginal (copulation) plug. Facial (mandibular) venous blood samples were collected from treated animals at 24 and 48 hours between injections and at pregnancy days 0.5, 2.5, 4.5, 6.5, 8.5, 10.5, 12.5, 14.5, 16.5 and 18.5, respectively, following a standard procedure for facial bleed in mice (Golde et al. Lab Anim (NY) 2005 34:39-43). A lean cohort of control B6 and BALBc mice was fed with a regular 10 kcal % control chow diet containing the same protein content as the high fat diet with a total energy mass of 3.1 kcal/g (D12450Bi, Cedarlane, Ontario). […]

[2] = humans, single oral dose of 0.5 mg; cited from earlier work
NOD, NZO and DIO mice [3] = assay: Still births, malformations and live births of near-term pups; assay type: in vivo, mouse
Text: FIGS. 13A through 13G show results of short term administration of tacrolimus reducing the rates of stillbirths and malformations associated with the diabetic gestation and restoration of normal term pregnancy with high rate of live births in the treated diabetic and obese mice. Numbers and external morphological features of near term (Gd.16.5) pups delivered to tacrolimus-treated versus those delivered to vehicle-treated diabetic and their normoglycemic control mice are depicted in FIGS. 13A through 13C, respectively. Fetal viability rates and external features of pups delivered to diabetic and obese mice with those of the tacrolimus-treated obese and type 2 diabetic mice are depicted in FIGS. 13D and 13E, respectively. Graph bars of FIGS. 13F and 13G display figure statistics.
The successful use of tacrolimus in reducing still birth rates and preventing fetal malformations in the diabetic and obese mice is supportive of the etiological role for IFN-γ in the pathophysiology of fetal loss in diabetes and obese subjects. FIG. 13 provides a comparison between the external morphological features and liver versus still birth rates in near-term (Gd.16.5) pups delivered to tacrolimus-treated NOD (FIG. 13A) versus vehicle-treated diabetic NOD (FIG. 13B) and their normoglycemic control mice (FIG. 13C). […]

[4] = Likely blood concentration from the dose regimen described herein (extrapolated); assay type: in vivo, mouse; conditions: four-fold lower than the rat value
Method: The smallest currently available tacrolimus dose is a 0.5 mg capsule and a single oral dose of 0.5 mg tacrolimus results in a maximal blood concentration in humans of 4.6 ng/ml (Mathew et al. Clinical Therapeutics. 2011 33(9):1105-1119). This represents over a seven-fold difference based upon the efficacious blood concentration of tacrolimus in experiments disclosed herein. A dose of 0.1 mg/kg in rats represents does of 0.2 mg/kg in mice, based upon a rat Km=6. This is a four-fold higher dose (0.2 mg/kg) than used in experiments disclosed herein. Therefore, the likely blood concentration from the dose regimen described herein would be four-fold lower (i.e. 0.15 ng/ml blood concentration) and represents an even greater exposure difference (28-fold to 38-fold) compared to existing tacrolimus dose forms for humans. Thus, experiments disclosed herein indicate that a substantially lower dose of macrolide agent such as tacrolimus than routinely administered to date may be useful in the methods of the present invention. By “substantially lower dose” or “low dose therapy” for purposes of the present invention, it is meant a dose of macrolide agent at least 2-fold lower, more preferably at least 4-fold lower, more preferably at least 10-fold lower, than the recommended starting doses of tacrolimus (Prograf) when administered for kidney and liver transplant or heart transplant.

[5] = short-term administration, FIG. 3B

C=CC[C@@H]1/C=C(\C)C[C@H](C)C[C@H](OC)[C@H]2O[C@@](O)(C(=O)C(=O)N3CCCC[C@H]3C(=O)O[C@H](/C(C)=C/[C@@H]3CC[C@@H](O)[C@H](OC)C3)[C@H](C)[C@@H](O)CC1=O)[C@H](C)C[C@@H]2OC [tacrolimus]
ovulation (NOD, NZO and DIO mice [1]; 0.1 mg/kg q2d s.c. for three weeks): enhanced ovulation
ovarian secretion of estrogen and progesterone (NOD, NZO and DIO mice [1]; 0.1 mg/kg q2d s.c. for three weeks, peri- and post-implantation): normalized ovarian secretion of estrogen and progesterone
uterine growth (uterine weight ratio) (NOD, NZO and DIO mice [1]; early proliferative phase (proestrus) of estrous cycle, FIG. 3C): significant improvement in uterine growth
numbers of atretic follicles (NOD, NZO and DIO mice [1]; [5]): reduced numbers of atretic follicles
numbers of secondary follicles, antral follicles and corpora lutea (NOD, NZO and DIO mice [1]; [5]): increased numbers of secondary follicles (FIG. 3B: S), antral follicles (FIG. 3B: A) and corpora lutea (FIG. 3B: CL)
maximal blood concentration [2]: 4.6 ng/mL
rates of still births and malformations (NOD, NZO and DIO mice [3]; near-term (Gd.16.5) pups): reduced the rates of still births and malformations
term pregnancy and live births (NOD, NZO and DIO mice [3]; treated diabetic and obese mice): restored normal term pregnancy with high rate of live births
likely blood concentration [4]: 0.15 ng/mL
